Our source for the Ki values is patent US9611262B2, “Substituted 2-azabicycles and their use as orexin receptor modulators” (JANSSEN PHARMACEUTICA NV, priority 2014, dated 2017).

Each structure is given as a SMILES string.

One test has as its target rat orexin 1 receptor (Rattus norvegicus, UniProt P56718). Put plainly: Rat orexin 1 receptor radioligand binding (competitive). The following applies: HEK293 cells stably expressing rat orexin 1 receptor; 4 nM radioligand; averages of 2-20 runs; read-out: rOX1 Ki. The essentials: (§1)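 Competition binding used HEK293 cells expressing rat OX1 or CHO cells expressing human OX1, with 4 nM final [3H]-labelled thiazolyl-oxadiazolyl-pyrrolidinyl methanone radioligand in PBS. Compounds were tested at 7 concentrations (0.1 nM–10 μM) for 60 min at room temperature, then filtered; 10 μM almorexant defined nonspecific binding. Ki was derived from the one-site IC50 and the radioligand Kd.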

The target in the next test is human orexin 2 receptor (Homo sapiens (Human), UniProt O43614). Nature of the test: Human orexin 2 receptor radioligand binding ([3H]-EMPA competition). Conditions: HEK293 stably expressing human orexin 2 receptor; 2 nM [3H]-EMPA; averages of 2-20 runs; read-out: hOX2 Ki. A digest of the protocol: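 Membranes-free whole HEK293 cells stably expressing human OX2 receptor incubated with [3H]-EMPA and compound (7 concentrations, 0.1 nM–10 μM, ≤0.1% DMSO) for 60 min at room temperature; nonspecific binding with 10 μM almorexant. Filtration and scintillation counting; one-site IC50 converted to Ki using predetermined Kd, triplicates averaged over 2-20 runs.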
Sequence of human orexin 2 receptor (O43614 whole entry): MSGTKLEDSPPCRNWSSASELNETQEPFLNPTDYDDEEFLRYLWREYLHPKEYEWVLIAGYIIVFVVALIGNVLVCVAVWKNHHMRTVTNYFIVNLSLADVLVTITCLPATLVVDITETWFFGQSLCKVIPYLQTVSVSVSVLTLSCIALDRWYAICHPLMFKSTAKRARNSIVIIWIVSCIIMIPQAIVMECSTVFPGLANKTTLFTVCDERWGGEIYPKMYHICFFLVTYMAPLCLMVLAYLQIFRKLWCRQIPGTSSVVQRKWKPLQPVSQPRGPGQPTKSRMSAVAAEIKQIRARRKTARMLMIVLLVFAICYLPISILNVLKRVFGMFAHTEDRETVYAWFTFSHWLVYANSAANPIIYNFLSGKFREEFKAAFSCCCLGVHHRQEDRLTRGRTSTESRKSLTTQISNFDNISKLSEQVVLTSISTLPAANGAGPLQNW

The target in a further test is human orexin 1 receptor (Homo sapiens (Human), UniProt O43613). Nature of the test: Human orexin 1 receptor radioligand binding (competitive). Conditions: CHO cells stably expressing human orexin 1 receptor; 4 nM radioligand; averages of 2-20 runs; read-out: hOX1 Ki. The essentials:
as §1

Sequence of human orexin 1 receptor (O43613 whole entry): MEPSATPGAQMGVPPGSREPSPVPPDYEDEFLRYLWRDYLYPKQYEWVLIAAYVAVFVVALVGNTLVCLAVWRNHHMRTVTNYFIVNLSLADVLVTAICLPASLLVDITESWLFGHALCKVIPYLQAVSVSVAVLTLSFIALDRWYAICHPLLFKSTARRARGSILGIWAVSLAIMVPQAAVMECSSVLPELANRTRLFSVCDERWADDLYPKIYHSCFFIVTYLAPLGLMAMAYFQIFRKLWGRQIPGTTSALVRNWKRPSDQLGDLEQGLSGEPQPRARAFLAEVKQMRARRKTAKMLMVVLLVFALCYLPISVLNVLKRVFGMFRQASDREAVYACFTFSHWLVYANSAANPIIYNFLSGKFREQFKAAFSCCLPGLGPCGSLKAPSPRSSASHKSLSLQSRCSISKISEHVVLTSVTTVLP

As for `C[C@@H]1[C@H]2C[C@@H](Oc3cnc(C(F)(F)F)cn3)[C@H](C2)N1C(=O)c1cccc(F)c1-n1nccn1` (relative stereo) [Example 52, (3-fluoro-2-(2H-1,2,3-triazol-2-yl)phenyl)((1S*,3R*,4R*,6R*)-3-methyl-6-((5-(trifluoromethyl)pyrazin-2-yl)oxy)-2-azabicyclo[2.2.1]heptan-2-yl)methanone], the Ki (as a rule, a dissociation constant, usually derived from enzyme kinetics or from competition with a known ligand) amounted to 0.018 µM at rat orexin 1 receptor, 2.55 µM at human orexin 2 receptor and 0.014 µM on human orexin 1 receptor.
Taken in the same sequence, the figures for `C[C@@H]1[C@H]2C[C@@H](Oc3cnc(C(F)(F)F)cn3)[C@H](C2)N1C(=O)c1cc(F)ccc1-n1nccn1` (relative stereo) [Example 54, (5-fluoro-2-(2H-1,2,3-triazol-2-yl)phenyl)((1S*,3R*,4R*,6R*)-3-methyl-6-((5-(trifluoromethyl)pyrazin-2-yl)oxy)-2-azabicyclo[2.2.1]heptan-2-yl)methanone] were 0.026 µM, 3.4 µM and 0.018 µM.
The like results for `COc1ccc(C(=O)N2[C@H](C)[C@H]3C[C@@H](Oc4cnc(C(F)(F)F)cn4)[C@@H]2C3)c(-n2nccn2)c1` (relative stereo) [Example 57, (4-methoxy-2-(2H-1,2,3-triazol-2-yl)phenyl)((1S*,3R*,4R*,6R*)-3-methyl-6-((5-(trifluoromethyl)pyrazin-2-yl)oxy)-2-azabicyclo[2.2.1]heptan-2-yl)methanone] were, in that order, 0.015 µM, more than 10 µM and 0.01 µM.
As to `C[C@@H]1[C@H]2C[C@@H](Nc3ccc(C(F)(F)F)cn3)[C@H](C2)N1C(=O)c1ncccc1-c1ncccn1` (relative stereo) [Example 62, ((1S*,3R*,4S*,6R*)-3-methyl-6-((5-(trifluoromethyl)pyridin-2-yl)amino)-2-azabicyclo[2.2.1]heptan-2-yl)(3-(pyrimidin-2-yl)pyridin-2-yl)methanone], the inhibition constant Ki on rat orexin 1 receptor was 0.005 µM; at human orexin 2 receptor, 0.36 µM; at human orexin 1 receptor, 0.004 µM.
The like results for `Cc1ccc(-n2nccn2)c(C(=O)N2[C@H](C)[C@H]3C[C@@H](Nc4ccc(C(F)(F)F)cn4)[C@@H]2C3)n1` (relative stereo) [Example 63, (6-methyl-3-(2H-1,2,3-triazol-2-yl)pyridin-2-yl)((1S*,3R*,4S*,6R*)-3-methyl-6-((5-(trifluoromethyl)pyridin-2-yl)amino)-2-azabicyclo[2.2.1]heptan-2-yl)methanone] were, in that order, 0.003 µM, 0.078 µM and 0.004 µM.
As to `Cc1ccc(-n2nccn2)c(C(=O)N2[C@H](C)[C@H]3C[C@@H](Oc4cnc5cc(F)ccc5n4)[C@@H]2C3)n1` (relative stereo) [Example 186, ((1S*,3R*,4R*,6R*)-6-((6-fluoroquinoxalin-2-yl)oxy)-3-methyl-2-azabicyclo[2.2.1]heptan-2-yl)(6-methyl-3-(2H-1,2,3-triazol-2-yl)pyridin-2-yl)methanone], the Ki on rat orexin 1 receptor worked out at 0.018 µM; at human orexin 2 receptor it was 0.125 µM; on human orexin 1 receptor, 0.012 µM.
For `C[C@@H]1[C@H]2C[C@@H](Oc3cnc4cc(F)ccc4n3)[C@H](C2)N1C(=O)c1cccc(F)c1-n1nccn1` (relative stereo) [Example 187, (3-fluoro-2-(2H-1,2,3-triazol-2-yl)phenyl)((1S*,3R*,4R*,6R*)-6-((6-fluoroquinoxalin-2-yl)oxy)-3-methyl-2-azabicyclo[2.2.1]heptan-2-yl)methanone], the results for the Ki on rat orexin 1 receptor, on human orexin 2 receptor and on human orexin 1 receptor were 0.007 µM, 0.136 µM and 0.006 µM, respectively.
Consider `C[C@@H]1[C@H]2C[C@@H](Oc3cnc4cc(F)ccc4n3)[C@H](C2)N1C(=O)c1ccccc1-n1nccn1` (relative stereo) [Example 188, (2-(2H-1,2,3-triazol-2-yl)phenyl)((1S*,3R*,4R*,6R*)-6-((6-fluoroquinoxalin-2-yl)oxy)-3-methyl-2-azabicyclo[2.2.1]heptan-2-yl)methanone], for which the values for the Ki on rat orexin 1 receptor, on human orexin 2 receptor and on human orexin 1 receptor were 0.006 µM, 0.107 µM and 0.007 µM, respectively.
